Results as given in patent US6855667B2, “Method for safening crops from the phytotoxic effects of herbicides by use of phosphorated esters” (priority 2000, dated 2005).

What was measured:
Type in all cases: in vivo
cotton (DPL 61) = assay: Clomazone injury and dietholate safening of cotton, growth chamber, percent injury vs untreated control; settings: for Percent Injury: 14 days
Method: (§1) The compounds and compositions of the present invention were tested as water/surfactant solutions on two corn varieties (Pioneer 3733 and Pioneer 3876) and one variety (DPL 61) of cotton. In one embodiment, the safening compound and herbicidal compound were sprayed in admixture as a tank mix onto flats of corn or cotton seeds arranged in a randomized, block design. In another embodiment, the safening compound was applied to the plant seeds by placing the safening compound and the plant seeds in a screw-capped jar, which was rolled on its side until dispersion of the safening compound was complete. Optionally, a sticker compound, for example, without limitation, water or carboxymethylcellulose, can be used to adhere the safening compound to the plant seeds. The treated plant seeds were planted and immediately sprayed with herbicidal compound as described hereinabove. There were four replicates for each rate of application. The emerging corn and cotton plants were maintained in a growth chamber for 14 days after which time they were evaluated for percent injury as compared to an untreated control.

corn (Pioneer 3733) = assay: Clomazone injury and dietholate safening of corn, variety Pioneer 3733; settings: 14 days
Method: as §1

corn (Pioneer 3876) = assay: Clomazone injury and dietholate safening of corn, variety Pioneer 3876; settings: 14 days
Method: as §1

[1] = tested on: two corn varieties (Pioneer 3733 and Pioneer 3876); assay: Clomazone injury and dietholate safening of corn, both varieties together; settings: clomazone without the safening compound dietholate
Method: as §1, with “control. […]” for “control.”

For `CC1(C)CON(Cc2ccccc2Cl)C1=O` [Clomazone, 2-[(2-chlorophenyl)methyl]-4,4-dimethyl-3-isoxazolidinone], the “Percent Injury” value (cotton (DPL 61); clomazone 0.25 kg/ha alone) was 46%, the “Percent Injury” value (cotton (DPL 61); clomazone 0.50 kg/ha alone) was 77% and the “Percent Injury” value (cotton (DPL 61); clomazone 1.0 kg/ha alone) was 91%. For the same compound, the “injury to cotton (in words)” value (cotton (DPL 61); clomazone without the safening compound dietholate) was “significant injury”, the “Percent Injury” value (corn (Pioneer 3733); clomazone 0.06 kg/ha alone) was 2% and the “Percent Injury” value (corn (Pioneer 3733); clomazone 0.12 kg/ha alone) was 28%. For the same compound, the “Percent Injury” value (corn (Pioneer 3733); clomazone 0.24 kg/ha alone) was 75%, the “Percent Injury” value (corn (Pioneer 3876); clomazone 0.06 kg/ha alone) was 1% and the “Percent Injury” value (corn (Pioneer 3876); clomazone 0.12 kg/ha alone) was 15%. For the same compound, the “Percent Injury” value (corn (Pioneer 3876); clomazone 0.24 kg/ha alone) was 59% and the “injury to corn (in words)” value [1] was “significant injury”.
